Test results as given in US7888332B2, “Hydrazide-containing CFTR inhibitor compounds and uses thereof” (The Regents of the University of California, priority 2004, dated 2011).
Like-named read-outs stand apart in the source and are kept apart here.

Legend:
[1] = target: upper airway CFTR Cl− conductance (Mus musculus, UniProt P26361); assay: Nasal potential difference measurements in mice
CFTR [2] = target: T1, CFTR (Homo sapiens, UniProt P13569); assay: Short-circuit current (apical Cl− current) analysis on permeabilized CFTR-expressing FRT cells
T1 sequence (P13569 whole entry): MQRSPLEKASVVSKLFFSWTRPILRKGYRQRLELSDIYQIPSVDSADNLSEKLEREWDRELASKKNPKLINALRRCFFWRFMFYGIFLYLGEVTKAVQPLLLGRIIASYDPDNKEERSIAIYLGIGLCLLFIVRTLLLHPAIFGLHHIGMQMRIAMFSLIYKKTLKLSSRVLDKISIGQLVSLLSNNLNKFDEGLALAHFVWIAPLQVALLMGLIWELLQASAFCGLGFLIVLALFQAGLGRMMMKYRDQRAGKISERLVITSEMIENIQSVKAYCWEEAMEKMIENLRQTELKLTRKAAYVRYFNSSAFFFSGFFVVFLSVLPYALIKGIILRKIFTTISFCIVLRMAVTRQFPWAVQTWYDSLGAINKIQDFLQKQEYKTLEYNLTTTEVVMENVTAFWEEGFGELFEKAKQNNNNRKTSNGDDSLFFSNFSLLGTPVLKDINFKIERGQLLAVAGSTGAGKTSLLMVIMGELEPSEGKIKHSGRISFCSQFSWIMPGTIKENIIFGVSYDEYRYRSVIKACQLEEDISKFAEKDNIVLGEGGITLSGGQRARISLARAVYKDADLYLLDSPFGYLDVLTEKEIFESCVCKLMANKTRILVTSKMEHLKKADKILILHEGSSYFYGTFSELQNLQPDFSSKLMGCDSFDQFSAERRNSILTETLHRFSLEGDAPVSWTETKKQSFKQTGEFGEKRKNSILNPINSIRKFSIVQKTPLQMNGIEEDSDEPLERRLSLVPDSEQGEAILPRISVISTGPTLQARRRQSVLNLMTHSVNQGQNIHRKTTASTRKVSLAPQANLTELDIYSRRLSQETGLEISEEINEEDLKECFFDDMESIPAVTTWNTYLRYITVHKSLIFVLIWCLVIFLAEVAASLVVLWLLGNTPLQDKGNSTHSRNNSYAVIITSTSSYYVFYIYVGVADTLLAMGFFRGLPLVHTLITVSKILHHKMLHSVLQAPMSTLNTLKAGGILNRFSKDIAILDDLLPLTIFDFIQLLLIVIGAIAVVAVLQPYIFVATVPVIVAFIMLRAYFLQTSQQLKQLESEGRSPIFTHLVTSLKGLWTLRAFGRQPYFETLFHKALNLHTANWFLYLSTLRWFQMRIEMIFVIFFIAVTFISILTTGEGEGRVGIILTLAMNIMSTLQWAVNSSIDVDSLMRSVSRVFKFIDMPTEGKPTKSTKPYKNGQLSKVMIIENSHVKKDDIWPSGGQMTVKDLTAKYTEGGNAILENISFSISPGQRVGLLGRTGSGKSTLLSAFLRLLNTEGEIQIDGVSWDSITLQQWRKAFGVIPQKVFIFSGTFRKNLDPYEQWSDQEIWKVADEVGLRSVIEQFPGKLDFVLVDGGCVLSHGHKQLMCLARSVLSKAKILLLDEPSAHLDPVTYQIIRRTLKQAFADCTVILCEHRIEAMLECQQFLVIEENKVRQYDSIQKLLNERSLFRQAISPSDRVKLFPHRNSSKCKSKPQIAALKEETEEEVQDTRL

CFTR [3] = target: T1, CFTR; assay: Cell-based YFP fluorescence assay of iodide influx after CFTR activation (screening); design: expressed in transfected cells; host or cells: Fisher Rat Thyroid (FRT) cells, stably transfected
Protocol: Screening was performed using an integrated system (Beckman) consisting of a 3-meter robotic arm, CO2 incubator, plate washer, liquid handling work station, barcode reader, delidding station, plate sealer and two fluorescence plate readers (Optima, BMG Lab Technologies), each equipped with two syringe pumps and HQ500/20X (500±10 nm) excitation and HQ535/30M (535±15 nm) emission filters (Chroma).
One hundred thousand small molecules (most 350-550 daltons) were selected for screening from commercial sources (ChemBridge and ChemDiv, both of San Diego, Calif.) using algorithms designed to maximize chemical diversity and drug-like properties. The compounds were obtained as a dried powder and solutions were made in DMSO just before testing, stored frozen as 2.5 mM stock solutions for further use.
For screening, cells in 96-well plates were washed three times and then CFTR halide conductance was activated by incubation for 15 minutes with an activating cocktail containing 10 μM forskolin, 20 μM apigenin and 100 μM isobutylmethyl-xanthine (IBMX). Test compounds (final 25 μM) were added 5 minutes prior to assay of iodide influx in which cells were exposed to a 100 mM inwardly-directed iodide gradient. YFP fluorescence was recorded for 2 seconds prior to and 12 seconds after creation of the iodide gradient. Initial rates of iodide influx were computed from the time course of decreasing fluorescence after the iodide gradient (Yang et al., J. Biol. Chem., 35079-35085, 2003).
A collection of 100,000 small, drug-like compounds was screened to identify new CFTR inhibitors. As diagrammed in FIG. 1A, compounds were screened at 25 μM in a cell-based assay of iodide influx after CFTR activation by an agonist mixture containing forskolin, IBMX and apigenin. Initial rates of iodide influx were computed from the kinetics of fluorescence decrease following chloride replacement by iodide. Four compounds (FIG. 1B) reducing iodide influx by greater than 50% were identified, which were not related structurally to known CFTR activators or inhibitors.

[4] = after GlyH-101 addition (10 μM)

Sequence of upper airway CFTR Cl− conductance (P26361 whole entry): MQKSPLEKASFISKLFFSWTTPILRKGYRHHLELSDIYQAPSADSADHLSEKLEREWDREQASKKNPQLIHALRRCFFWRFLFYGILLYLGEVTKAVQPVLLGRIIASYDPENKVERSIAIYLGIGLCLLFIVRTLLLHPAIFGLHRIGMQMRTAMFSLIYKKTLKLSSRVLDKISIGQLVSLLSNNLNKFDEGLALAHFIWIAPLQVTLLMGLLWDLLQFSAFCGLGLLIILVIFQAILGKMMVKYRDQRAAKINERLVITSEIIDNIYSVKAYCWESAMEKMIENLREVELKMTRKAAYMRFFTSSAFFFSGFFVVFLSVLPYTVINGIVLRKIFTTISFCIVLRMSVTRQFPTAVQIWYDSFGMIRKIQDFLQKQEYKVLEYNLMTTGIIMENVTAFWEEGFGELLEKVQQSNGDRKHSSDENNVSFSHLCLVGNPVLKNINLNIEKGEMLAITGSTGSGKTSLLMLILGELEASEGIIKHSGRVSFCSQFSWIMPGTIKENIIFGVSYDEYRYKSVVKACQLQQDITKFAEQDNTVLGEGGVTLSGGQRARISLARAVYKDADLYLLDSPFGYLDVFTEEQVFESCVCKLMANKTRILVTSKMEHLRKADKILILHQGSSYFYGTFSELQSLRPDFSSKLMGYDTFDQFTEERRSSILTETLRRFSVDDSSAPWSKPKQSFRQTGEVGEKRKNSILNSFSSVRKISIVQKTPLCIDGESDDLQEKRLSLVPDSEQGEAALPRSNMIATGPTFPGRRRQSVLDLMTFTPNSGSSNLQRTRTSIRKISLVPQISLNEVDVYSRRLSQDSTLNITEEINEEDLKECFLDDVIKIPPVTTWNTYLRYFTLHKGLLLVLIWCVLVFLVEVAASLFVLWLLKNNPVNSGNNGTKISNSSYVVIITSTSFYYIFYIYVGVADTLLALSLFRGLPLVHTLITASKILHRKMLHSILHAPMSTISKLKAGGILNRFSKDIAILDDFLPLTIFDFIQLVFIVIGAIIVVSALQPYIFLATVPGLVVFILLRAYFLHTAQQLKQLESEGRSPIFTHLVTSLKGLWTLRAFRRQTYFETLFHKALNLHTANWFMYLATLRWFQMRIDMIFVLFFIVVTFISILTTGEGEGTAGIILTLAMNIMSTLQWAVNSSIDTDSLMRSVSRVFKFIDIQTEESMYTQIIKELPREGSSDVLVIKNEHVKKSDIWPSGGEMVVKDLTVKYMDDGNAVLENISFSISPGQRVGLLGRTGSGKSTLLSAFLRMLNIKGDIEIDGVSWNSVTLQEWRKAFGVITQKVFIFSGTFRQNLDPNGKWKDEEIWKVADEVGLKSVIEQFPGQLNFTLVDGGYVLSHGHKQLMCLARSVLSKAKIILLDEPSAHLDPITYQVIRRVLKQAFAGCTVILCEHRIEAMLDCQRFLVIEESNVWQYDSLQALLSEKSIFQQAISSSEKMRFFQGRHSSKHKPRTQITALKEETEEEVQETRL

O=C(CNc1ccc2ccccc2c1)NN=Cc1cc(Br)c(O)c(Br)c1O [GlyH-101, N-2-napthalenyl-[(3,5-dibromo-2,4-dihydroxyphenyl)methylene]glycine hydrazide]
PD change (ΔPD), paired analysis ([1]; after ˜4 mV hyperpolarization by forskolin): depolarization of similar magnitude | inhibition of forskolin-induced hyperpolarization ([1]; compound in all solutions (10 μM)): substantial inhibition | effect on forskolin-induced hyperpolarization of nasal PD ([1]; topical in perfusate, 10 μM): rapidly reversed | % inhibition at 50 μM (CFTR [2]; Table 1, Group I, 50 μM): 95% | Ki (CFTR [2]; Table 1, Group I, concentration giving 50% inhibition of CFTR Cl− conductance): 5 µM | pH dependence of Ki for inhibition of CFTR Cl− current (CFTR [2]; pH range 6-8): independent of pH | Ki (CFTR [2]; read-out: Ki of screening hits, dose-response measurements, confirmed by short-circuit current analysis): ~5 µM | CFTR inhibition after activation by different types of agonists (CFTR [3]; 50 μM GlyH-101, agonists 50 μM incl. CFTRact-01, 08, 10): effective CFTR inhibition | time of further inhibition (CFTR [3]; [4]): ~1 min | time within which 50% of the inhibition occurred (CFTR [3]; [4]): ≤ 1 s | reversal of inhibition after washout (CFTR [3]; washout): complete reversal | reversal of inhibition over 5 minutes after washout (CFTR [3]; washout, 5 minutes): > 75% | water solubility compared to CFTRinh-172 (Water solubility): 50 fold | water solubility (Water solubility; in water, 22° C., pH 6-8): 800 to 1300 µM
